Common to all, as to assay: microbe, parasite or virus in culture
Common to all, as to type: functional, cell-based
Conditions in all cases: MDCK

The test system of assay [1] is Influenza A virus.
The test system of assay [2] is Influenza A virus. This is another data set of the same source.
Assay [3] has as its system Influenza A virus. The source holds these as a separate data set.

pEC50: −log10 of the molar value.

For the compound `CC(C)c1ccccc1NCCN1CCCCC1`, the figures for the pEC50 in the assay with Influenza A virus [1], with Influenza A virus [2] and in the assay with Influenza A virus [3] were 5.64, less than 4.00 and less than 4.00, respectively.
Take `NC(=O)c1ncn([C@@H]2O[C@H](CO)[C@@H](O)[C@H]2O)n1` [RIBAVIRIN]: the pEC50 in the assay with Influenza A virus [1] is 4.82.
`CC(C)c1ccccc1NCCN1CCCCCC1`: the pEC50 is 5.82 with Influenza A virus [1], less than 4.00 in the assay with Influenza A virus [2] and less than 4.00 with Influenza A virus [3].

The values are drawn from ChEMBL document CHEMBL4024772, “Aniline-Based Inhibitors of Influenza H1N1 Virus Acting on Hemagglutinin-Mediated Fusion” (J Med Chem, 2018).
